Experimental data as given in paper PMC6688371, “Effect of the inhaled PDE4 inhibitor CHF6001 on biomarkers of inflammation in COPD” (Respiratory Research, 2019).

Test system: markers of inflammation in sputum
Experiment: Markers of inflammation in induced sputum
Format: in vivo, human
Settings: geometric mean (%CV); for α-2-macroglobulin in sputum, post-baseline: mean of Days 20, 26 and 32
Description: Induced sputum was collected pre-dose on Day 1 of each treatment period (for the first treatment period, the sample could be collected up to 10 days prior to Day 1), and 2 h post-dose on Days 20, 26 and 32 (see the Additional file 1 for further detail on sputum and blood analysis methods). Blood samples were taken pre-dose on Day 1, and pre-dose and at 30 min, and 1, 1.5, 2, 3, 4, 6, 8 and 12 h post-dose on Day 32. Other pre-dose assessments on Days 1 and 32 were spirometry (forced expiratory volume in 1 s [FEV1] and forced vital capacity [FVC]), forced oscillometry, and COPD Assessment Test (CAT), with Baseline Dyspnea Index recorded on Day 1 and Transition Dyspnea Index (TDI) on Day 32. Central and peripheral airways mechanics were assessed using forced oscillometry, with the following values determined: inspiratory and expiratory resistance (at 5 and 19 Hz), inspiratory and expiratory reactance, tidal expiratory flow limitation and the percentage of flow limited breaths.
A patient had to have a minimum of one acceptable sputum sample on Day 20, 26 or 32 to be included in the sputum biomarker evaluation for that treatment period, with the available cell count and biomarker data averaged for each patient. The mean change from baseline (pre-dose on Day 1 of each treatment period) was then compared between treatments using an analysis of covariance (ANCOVA) that included treatment, patient and period as fixed effects, and baseline values as covariate. The mean change from baseline to Day 32 for biomarkers in blood were analysed using the same model as for sputum data. All data were log-transformed before analysis, and the results are presented as ratio of geometric means.
Effect of CHF6001 on inflammatory biomarkers – Additional file 1 […]
Analysis of biomarkers and CHF6001 concentration in sputum
Sputum samples were collected by sputum induction, with patients breathing in nebuli sed hypertonic saline at increasing concentrations (3%, then 4% and finally 5%) while wearing a nose clip. Sputum plugs were isolated, processed by centrifugation and analysed to determine inflammatory cell counts (with total cell counts performed by each s ite’s local laboratory and differential counts at a central laboratory), as follows.
All solid or dense-looking material was collected from the clear salivary fluid into a stainless steel Petri dish lid. Sputum plugs were then gathered and condensed into one mass. After cleaning the Petri dish, cold Dulbecco's Phosphate -Buffered Saline equal to eight times the weight of the sputum plug was added, then dispersed , mixed and vortexed for 15 sec, before gently agitating on a rolling mixer or rocker for 15 min at room temperature. The resulting mixture was centrifuged at 790 g for 10 min at 4C. A volume of the supernatant equal to four times the weight of the sputum plug was removed and again centrifuged at 1500 g for 10 min at 4C. The clarified supernatant was divided into four equal aliquots, which were shipped in an upright position at –80C to a central laboratory for biomarker assessment. Levels of biomarkers were assessed as follows:
• α-2-macroglobulin: Meso Scale Diagnostics ELISA method .
• Interleukin (IL) 6 and 1β, C-X-C motif chemokine ligand 8 (CXCL8) and tumour necrosis factor (TNF) α: Meso Scale Diagnostics Pro-inflammatory v-PLEX Plus kit.
• Leukotriene B4: High pressure liquid chromatography with tandem mass spectroscopy (HPLC-MS/MS).
• Myeloperoxidase (MPO): Meso Scale Diagnostics MPO v-PLEX kit.
• Neutrophil elastase (NE): Luminex MAGPIX System Human Sepsis Magnetic Bead […]
• Monocyte chemotactic protein (MCP) 1 (also known as C-C motif chemokine ligand [CCL] 2) and macrophage inflammatory protein (MIP) 1β (also known as CCL4):
Meso Scale Diagnostics Chemokine v-PLEX Plus kit.
• Matrix metalloproteinase (MMP) 9: Sandwich Immunoassay, using PheraSTAR Plate […]
• Total protein: Pierce BCA protein assay.
Validation procedures followed those outlined in the “Guideline on Bioanalytical Method […]

With CS(=O)(=O)Nc1ccc(C(=O)O[C@@H](Cc2c(Cl)c[n+]([O-])cc2Cl)c2ccc(OC(F)F)c(OCC3CC3)c2)cc1OCC1CC1 [CHF6001] the “C-X-C motif chemokine ligand 8 in sputum, post-baseline” value (800 µg BID) was 1828.97 (140.2) pg/mL, the “Interleukin 1β in sputum, post-baseline” value (800 µg BID) was 13.6127 (599.5) pg/mL and the “Interleukin 6 in sputum, post-baseline” value (800 µg BID) was 48.7856 (108.7) pg/mL. For the same molecule, the “Leukotriene B4 in sputum, post-baseline” value (800 µg BID) was 872.363 (135.0) pg/mL, the “Macrophage inflammatory protein 1β in sputum, post-baseline” value (800 µg BID) was 68.2963 (153.5) pg/mL and the “Matrix metalloproteinase 9 in sputum, post-baseline” value (800 µg BID) was 175.9824 (292.9) ng/mL. For the same molecule, the “Monocyte chemotactic protein-1 in sputum, post-baseline” value (800 µg BID) was 136.8746 (89.9) pg/mL, the “Myeloperoxidase in sputum, post-baseline” value (800 µg BID) was 476,409.369 (720.8) pg/mL and the “Neutrophil elastase in sputum, post-baseline” value (800 µg BID) was 82,640.61 (281.5) pg/mL. For the same molecule, the “Total protein in sputum, post-baseline” value (800 µg BID) was 320.329 (100.5) µg/mL, the “Tumour necrosis factor α in sputum, post-baseline” value (800 µg BID) was 1.595 (265.2) pg/mL and the “α-2-macroglobulin in sputum, post-baseline” value (800 µg BID) was 247.464 (233.4) ng/mL. For the same molecule, the “C-X-C motif chemokine ligand 8 in sputum, post-baseline” value (1600 µg BID) was 2104.09 (127.3) pg/mL, the “Interleukin 1β in sputum, post-baseline” value (1600 µg BID) was 13.2876 (377.1) pg/mL and the “Interleukin 6 in sputum, post-baseline” value (1600 µg BID) was 55.8291 (107.5) pg/mL. The “Leukotriene B4 in sputum, post-baseline” value (1600 µg BID) was 678.965 (274.2) pg/mL, the “Macrophage inflammatory protein 1β in sputum, post-baseline” value (1600 µg BID) was 60.8680 (139.7) pg/mL and the “Matrix metalloproteinase 9 in sputum, post-baseline” value (1600 µg BID) was 176.3384 (249.4) ng/mL. The “Monocyte chemotactic protein-1 in sputum, post-baseline” value (1600 µg BID) was 152.5465 (108.2) pg/mL, the “Myeloperoxidase in sputum, post-baseline” value (1600 µg BID) was 494,342.192 (536.6) pg/mL and the “Neutrophil elastase in sputum, post-baseline” value (1600 µg BID) was 84,470.09 (238.7) pg/mL. The “Total protein in sputum, post-baseline” value (1600 µg BID) was 327.176 (102.5) µg/mL, the “Tumour necrosis factor α in sputum, post-baseline” value (1600 µg BID) was 1.687 (342.0) pg/mL and the “α-2-macroglobulin in sputum, post-baseline” value (1600 µg BID) was 247.877 (270.6) ng/mL.
